{
  "source": "patent US20020019365A1",
  "about": "“Pharmaceutical compositions of 2'-deoxy-2'-(fluoromethylene)cytidine” (priority 2000, published 2002)",
  "key": {"[1]": {"assay": "pH-rate profile for the degradation of FMdC (pH-stability profile, FIG. 1)", "assay_type": "physicochemical"}, "[2]": {"assay": "oral administration of FMdC in a conventional tablet form, systemic uptake / bioavailability", "assay_type": "in vivo", "conditions": "mammalian patient", "method": "Notwithstanding these teachings in the art, a problem has been encountered when the compound is administered in an oral form."}},
  "data": [
    {"smiles": "Nc1ccn(C2OC(CO)[C@@H](O)/C2=C\\F)c(=O)n1", "note": "(stereo partly shown) [FMdC, 2′-deoxy-2′-(fluoromethylene)cytidine]", "values": [
      {"measurement": "pH at which FMdC is most stable", "setting": "[1]; Britton-Robinson buffer (pH 2 to pH 11) and 0.1N HCl (pH 1) at 60° C.", "result": "~9", "unit": "pH"},
      {"measurement": "stability at a pH of about 2 or less", "setting": "[1]; pH of about 2 or less, 60° C.", "result": "very unstable"},
      {"measurement": "patient-to-patient variability of systemic uptake", "setting": "[2]", "result": "high"},
      {"measurement": "systemic uptake of the drug (oral bioavailability)", "setting": "[2]", "result": "less than desirable"}
    ]}
  ]
}
